Measurements published in patent publication US11149018B2, “Substituted N-arylethyl-2-aminoquinoline-4-carboxamides and use thereof” (Bayer Aktiengesellschaft, priority 2017, dated 2021).

What was measured:
[1] = system: C57Bl6J mice with unilateral ureteral obstruction; assay: Unilateral ureteral obstruction (UUO) in mice (renal fibrosis); type: in vivo, mouse; conditions: 10 days after UUO, mean ± SD, n=10; for SR/FG positive area [%]: SiriusRed/FastGreen collagen staining of kidney; for αSMA positive area [%]: immunohistochemistry of kidney; for Gene expression CTGF / Gene expression Col1α1 / Gene expression Col3α1 / Gene expression Col4α1 / Gene expression IL1-β / Gene expression IL-6 / Gene expression KC / Gene expression MCP-1 / Gene expression TGF-β / Gene expression αSMA: kidney, % of placebo group (=100%)
Excerpt: B-22. Animal Model of Unilateral Ureteral Obstruction (UUO) in Mice (Renal Fibrosis) Unilateral ureteral obstruction in mice and rats is a widely used animal model for interstitial renal fibrosis (Chevalier et al., Kidney Int. 2009, 75, 1145-1152). Permanent occlusion of the ureter leads, as a result of the sustained accumulation of the urine, to increased inflammatory cell infiltration into the interstitium, to tubular cell death and to irreversible loss of the renal parenchyma. After 5 to 7 days, owing to the elevated deposition of extracellular matrix proteins, interstitial fibrosis arises. Adult male […] mice (Charles River Laboratories, Sulzfeld, Germany) having a weight of 20-22 g were anaesthetized with isoflurane, then, after opening up the abdominal cavity, a ureter was ligated and severed beneath the ligature. In the sham-operated control mice (SHAM), the abdominal cavity was merely opened up, but the ureter was not ligated. […] 10 days after the UUO, the animals were anaesthetized and sacrificed by exsanguination. Thereafter, the kidneys were removed and renal fibrosis was assessed on the basis of the expression of pro-inflammatory and pro-fibrotic markers, and a histological assessment of the renal tissue.

[2] = system: C57BL/6J mice with CCl4-induced hepatic fibrosis; assay: Carbon tetrachloride (CCl4)-induced hepatic fibrosis in mice; type: in vivo, mouse
Experimental: B-21. Carbon Tetrachloride (CCl4)-Induced Hepatic Fibrosis in Mice
Sixty C57BL/6J mice (Charles River, male, 8 weeks old) were randomized and divided equally into 4 groups (15 mice per group). Group 1 served as the untreated healthy control group, whereas groups 2-4 served as mice suffering from hepatic fibrosis. Hepatic fibrosis was induced by intraperitoneal injection of 50 μl CCl4/olive oil suspension (CCl4+olive oil, 1+9 v/v) three times per week (Monday, Wednesday and Friday) over the entire study period. […] The CCl4-treated mice of group 4 served as group treated with a compound of the formula (I). The oral treatment of group 3 with the vehicle solution and of group 4 with a compound of the formula (I) started on day 1 and was continued twice daily (in the morning and evening) over the complete study period of two weeks. At the end of the study, all animals were sacrificed under anaesthetic, and the livers were removed fixed in 4% buffered formaldehyde solution for the subsequent histological processing and analysis. For this purpose, liver samples for all animals were embedded in paraffin and 3 μm-thick paraffin sections were produced. […] The sections were scanned with 20× enlargement and a light intensity of 4.8 V. The images thus produced were then converted to JPG format, and the red-stained area was quantified by means of ImageJ software (National Institute of Health, USA). […]

[3] = system: C57Bl6J mice with DQ12 silica-induced pulmonary fibrosis; assay: Silica-induced pulmonary fibrosis in mice, therapeutic chronic 30-day study; type: in vivo, mouse; conditions: day 10-30, mean ± SEM
Experimental: B-23. Silica-Induced Pulmonary Fibrosis in Mice: Therapeutic Chronic 30-Day Study with FP Antagonists
Adult female C57Bl6J mice (Charles River Laboratories, Sulzfeld, Germany) having a weight of 18-20 g were anaesthetized in a chamber with isoflurane (3% v/v) and treated intratracheally with 2.5 mg of crystalline DQ12 silica dissolved in 70 μL of sterile phosphate-buffered saline. Untreated control mice received the same volume of phosphate-buffered saline. […] 30 days after the installation of silica, the animals were anaesthetized with an intraperitoneal injection of ketamine/medetomidine (50 mg/kg and 0.33 mg/kg) combined with a subcutaneous injection of Temgesic (0.06 mg/kg) and sacrifice by exsanguination. Thereafter, the trachea was cannulated, and the animals' lungs were lavaged three times with 0.5 ml of ice-cold phosphate-buffered saline. Thereafter, the lungs were removed, weighed and shock-frozen in dry ice. […] The data are mean values±SEM of 8-12 animals per group. The statistical analysis was conducted with the unpaired Student's t test. P values<0.05 were considered to be significant.

FP receptor = FP receptor (Homo sapiens (Human), UniProt P43088); conditions: least selective of the prostanoid receptors; cited from earlier work
Sequence of FP receptor (P43088 whole entry): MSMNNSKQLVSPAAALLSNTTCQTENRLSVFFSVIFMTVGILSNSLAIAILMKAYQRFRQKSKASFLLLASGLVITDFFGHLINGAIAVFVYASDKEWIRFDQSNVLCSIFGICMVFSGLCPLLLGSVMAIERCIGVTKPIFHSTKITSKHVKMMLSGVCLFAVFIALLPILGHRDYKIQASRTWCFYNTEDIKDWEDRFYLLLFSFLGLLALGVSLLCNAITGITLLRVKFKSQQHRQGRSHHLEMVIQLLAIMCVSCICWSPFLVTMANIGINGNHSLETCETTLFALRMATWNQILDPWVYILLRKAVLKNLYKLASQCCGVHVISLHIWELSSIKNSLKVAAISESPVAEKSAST

[4] = system: occlusion of the cerebral artery; conditions: treatment with the FP antagonist after occlusion of the cerebral artery; cited from earlier work

Structure (SMILES): Cc1c(N2CCCC2)nc2ccc(Br)cc2c1C(=O)NCC(CCC(=O)O)c1ccccc1Cl.Cl (single isomer, unassigned; (+)) [Example 284, (+)-5-({[6-Bromo-3-methyl-2-(pyrrolidin-1-yl)quinolin-4-yl]carbonyl}amino)-4-(2-chlorophenyl)pentanoic acid hydrochloride]
- SR/FG positive area [%] ([1]; 30 mg/kg): 38.74 ± 9.12%
- αSMA positive area [%] ([1]; 30 mg/kg): 25.19 ± 3.23%
- Gene expression CTGF ([1]; 30 mg/kg): 105.67 ± 52.33%
- Gene expression Col1α1 ([1]; 30 mg/kg): 76.70 ± 36.22%
- Gene expression Col3α1 ([1]; 30 mg/kg): 103.74 ± 37.60%
- Gene expression Col4α1 ([1]; 30 mg/kg): 71.15 ± 20.20%
- Gene expression IL1-β ([1]; 30 mg/kg): 81.91 ± 31.93%
- Gene expression IL-6 ([1]; 30 mg/kg): 207.04 ± 389.13%
- Gene expression KC ([1]; 30 mg/kg): 65.02 ± 15.98%
- Gene expression MCP-1 ([1]; 30 mg/kg): 93.98 ± 26.32%
- Gene expression TGF-β ([1]; 30 mg/kg): 67.57 ± 32.67%
- Gene expression αSMA ([1]; 30 mg/kg): 72.97 ± 39.94%
- SR/FG positive area [%] ([1]; 60 mg/kg): 34.66 ± 7.59%
- αSMA positive area [%] ([1]; 60 mg/kg): 22.28 ± 4.04%
- Gene expression CTGF ([1]; 60 mg/kg): 102.07 ± 26.99%
- Gene expression Col1α1 ([1]; 60 mg/kg): 38.90 ± 13.11%
- Gene expression Col3α1 ([1]; 60 mg/kg): 126.15 ± 46.51%
- Gene expression Col4α1 ([1]; 60 mg/kg): 45.97 ± 8.44%
- Gene expression IL1-β ([1]; 60 mg/kg): 112.05 ± 71.38%
- Gene expression IL-6 ([1]; 60 mg/kg): 494.83 ± 850.76%
- Gene expression KC ([1]; 60 mg/kg): 50.69 ± 22.02%
- Gene expression MCP-1 ([1]; 60 mg/kg): 117.41 ± 38.15%
- Gene expression TGF-β ([1]; 60 mg/kg): 31.79 ± 9.06%
- Gene expression αSMA ([1]; 60 mg/kg): 51.72 ± 21.33%
- Progression of fibrosis (result in words) ([2]; 2-week study in mice with hepatic fibrosis, p<0.01, two-way ANOVA with Dunnett post-hoc test): significant reduction in the progression of fibrosis
- Sirius red [% liver area] ([2]; CCl4 + 100 mg/kg, oral twice daily, 2 weeks, mean ± SD): 3.51 ± 0.65 % liver area
- Hydroxyproline [ng/lung] ([3]; Silica + 10 mg/kg po bid): 2341 ± 54.99 (n = 12) ng/lung
- Hydroxyproline [ng/lung] ([3]; Silica + 30 mg/kg po bid): 2185 ± 86.79 (n = 12) ng/lung

Structure (SMILES): CCCCC[C@H](O)/C=C/[C@H]1[C@H](O)CC(=O)[C@@H]1C/C=C\CCCC(=O)O [PGE2, prostaglandin E2]
- binding affinity to the FP receptor (FP receptor): nanomolar affinities

Structure (SMILES): O=C(O)CCC/C=C\C[C@@H]1[C@@H](/C=C/[C@H](O)C2Cc3ccccc3C2)[C@@H](F)C[C@@H]1O [AL-8810]
- neuroprotective effect [4]: significant neuroprotective effects

Structure (SMILES): CCCCC[C@H](O)/C=C/[C@H]1C(=O)C[C@H](O)[C@@H]1C/C=C\CCCC(=O)O [PGD2, prostaglandin D2]
- binding affinity to the FP receptor (FP receptor): nanomolar affinities
